# Measured values published in patent US6943191B1, “Disubstituted lavendustin A analogs and pharmaceutical composition comprising the analogs” (The United States of America as represented by the …, priority 1998, dated 2005).
# How the values were obtained:
# Assay type in all cases: in vivo, human
# UACC-62 = assay: Hollow fiber assay in mice, UACC-62; conditions: QD X 4, Day 4; for % T/C UACC-62 IP: IP fibers; for % T/C UACC-62 SC: SC fibers
# Procedure: (§1) Compounds satisfying Formulas 1 and 2 also have been tested for in vivo activity in the hollow fiber assay. See Example 12 below for the procedure used for the in vivo tests. Each compound tested was tested against a minimum of 12 human cancer cell lines. Data is reported as % T/C (i.e., the […]) for each of the 2 compound doses against each of the cell lines with separate values calculated for the intraperitoneal and subcutaneous samples, with a target value for % T/C being about 50 or less.
# (§2) Compounds were selected for further in vivo testing in standard subcutaneous xenograft models on the basis of several hollow fiber assay criteria. These criteria include: (1) a % T/C of 50 or less in 10 of the 48 possible test combinations (12 cell lines×2 sites×2 compound doses); (2) activity at a distance (intrapentoneal drug/subcutaneous culture) in a minimum of 4 of the 24 possible combinations; and/or (3) a net cell kill of 1 or more cell lines in either implant site. To simplify evaluation, a point system has been adopted which allows rapid assessment of a compound's activity. A value of 2 is assigned for each compound dose which results in a 50% or greater reduction in viable cell mass. The intraperitoneal and subcutaneous samples were scored separately so that criteria (1) and (2) could be evaluated. Compounds with a combined IP+SC score≧20, an SC score≧8, or a net cell kill of one or more cell lines were referred for xenograft testing. These criteria have been statistically validated by comparing the activity outcomes of greater than 80 randomly selected compounds in the hollow fiber assay and in the xenograft testing.
# (§3) This example describes the method used for in vivo testing of mice. Human cancer cells were cultivated in polyvinylidene fluoride (PVDF) hollow fibers. A sample of each cancer cell line was implanted intraperitoneally and subcutaneously in mice. Each mouse received a total of 6 fibers, 3 intraperitoneally and 3 subcutaneously, representing 3 distinct cancer cell lines. Three mice were treated with compounds made according to the present invention at each of two test doses intraperitoneally using a QD×4 treatment schedule. […] Anticancer effects were assessed by determining viable cell mass for each of the coil line using a formazan dye (MTT) conversion assay. From this, the % TIC was calculated using the average optical density of the compound-treated samples divided by the average optical density of the vehicle controls. In addition, the net increase in cell mass was determined for each sample as samples of fiber cultures were assessed for viable cell mass on the day of implantation into mice. This allowed cytostatic and cytocidal capacities of these compounds to be assessed.
# SW-620 = assay: Hollow fiber assay in mice, SW-620; conditions: QD X 4, Day 4; for % T/C SW-620 IP: IP fibers; for % T/C SW-620 SC: SC fibers
# Procedure: as §1, §2, §3
# SF-295 = assay: Hollow fiber assay in mice, SF-295; conditions: QD X 4, Day 4; for % T/C SF-295 IP: IP fibers; for % T/C SF-295 SC: SC fibers
# Procedure: as §1, §2, §3
# OVCAR-5 = assay: Hollow fiber assay in mice, OVCAR-5; conditions: QD X 4, Day 4; for % T/C OVCAR-5 IP: IP fibers; for % T/C OVCAR-5 SC: SC fibers
# Procedure: as §1, §2, §3
# NCI-H23 = assay: Hollow fiber assay in mice, NCI-H23; conditions: QD X 4, Day 4; for % T/C NCI-H23 IP: IP fibers; for % T/C NCI-H23 SC: SC fibers
# Procedure: as §1, §2, §3
# MDA-MB-231 = assay: Hollow fiber assay in mice, MDA-MB-231; conditions: QD X 4, Day 4; for % T/C MDA-MB-231 IP: IP fibers; for % T/C MDA-MB-231 SC: SC fibers
# Procedure: as §1, §2, §3
# NCI-H522 = assay: Hollow fiber assay in mice, NCI-H522; conditions: QD X 4, Day 4; for % T/C NCI-H522 IP: IP fibers; for % T/C NCI-H522 SC: SC fibers
# Procedure: as §1, §2, §3
# U251 = assay: Hollow fiber assay in mice, U251; conditions: QD X 4, Day 4; for % T/C U251 IP: IP fibers; for % T/C U251 SC: SC fibers
# Procedure: as §1, §2, §3
# MDA-MB-435 = assay: Hollow fiber assay in mice, MDA-MB-435; conditions: QD X 4, Day 4; for % T/C MDA-MB-435 IP: IP fibers; for % T/C MDA-MB-435 SC: SC fibers
# Procedure: as §1, §2, §3
smiles,measurement,setting,value
"O=C(OC12CC3CC(CC(C3)C1)C2)c1ccc(NCc2cc(O)ccc2O)cc1 [Compound 6, 4′-adamantylbenzoate-1′-N-2,5-dihydroxybenzylamine]",% T/C UACC-62 IP,UACC-62; 33.50 mg/kg/dose IP,>100%
same,% T/C UACC-62 IP,UACC-62; 50.00 mg/kg/dose IP,>100%
same,% T/C UACC-62 SC,UACC-62; 33.50 mg/kg/dose IP,99%
same,% T/C UACC-62 SC,UACC-62; 50.00 mg/kg/dose IP,99%
same,% T/C SW-620 IP,SW-620; 33.50 mg/kg/dose IP,>100%
same,% T/C SW-620 IP,SW-620; 50.00 mg/kg/dose IP,>100%
same,% T/C SW-620 SC,SW-620; 33.50 mg/kg/dose IP,94%
same,% T/C SW-620 SC,SW-620; 50.00 mg/kg/dose IP,80%
same,% T/C SF-295 IP,SF-295; 33.50 mg/kg/dose IP,>100%
same,% T/C SF-295 IP,SF-295; 50.00 mg/kg/dose IP,88%
same,% T/C SF-295 SC,SF-295; 33.50 mg/kg/dose IP,>100%
same,% T/C SF-295 SC,SF-295; 50.00 mg/kg/dose IP,88%
same,% T/C OVCAR-5 IP,OVCAR-5; 33.50 mg/kg/dose IP,>100%
same,% T/C OVCAR-5 IP,OVCAR-5; 50.00 mg/kg/dose IP,46%
same,% T/C OVCAR-5 SC,OVCAR-5; 33.50 mg/kg/dose IP,87%
same,% T/C OVCAR-5 SC,OVCAR-5; 50.00 mg/kg/dose IP,75%
same,% T/C NCI-H23 IP,NCI-H23; 33.50 mg/kg/dose IP,100%
same,% T/C NCI-H23 IP,NCI-H23; 50.00 mg/kg/dose IP,>100%
same,% T/C NCI-H23 SC,NCI-H23; 33.50 mg/kg/dose IP,>100%
same,% T/C NCI-H23 SC,NCI-H23; 50.00 mg/kg/dose IP,>100%
same,% T/C MDA-MB-231 IP,MDA-MB-231; 33.50 mg/kg/dose IP,>100%
same,% T/C MDA-MB-231 IP,MDA-MB-231; 50.00 mg/kg/dose IP,>100%
same,% T/C MDA-MB-231 SC,MDA-MB-231; 33.50 mg/kg/dose IP,67%
same,% T/C MDA-MB-231 SC,MDA-MB-231; 50.00 mg/kg/dose IP,92%
same,% T/C NCI-H522 IP,NCI-H522; 33.50 mg/kg/dose IP,94%
same,% T/C NCI-H522 IP,NCI-H522; 50.00 mg/kg/dose IP,48%
same,% T/C NCI-H522 SC,NCI-H522; 33.50 mg/kg/dose IP,89%
same,% T/C NCI-H522 SC,NCI-H522; 50.00 mg/kg/dose IP,89%
same,% T/C U251 IP,U251; 33.50 mg/kg/dose IP,100%
same,% T/C U251 IP,U251; 50.00 mg/kg/dose IP,>100%
same,% T/C U251 SC,U251; 33.50 mg/kg/dose IP,>100%
same,% T/C U251 SC,U251; 50.00 mg/kg/dose IP,>100%
same,% T/C MDA-MB-435 IP,MDA-MB-435; 33.50 mg/kg/dose IP,>100%
same,% T/C MDA-MB-435 IP,MDA-MB-435; 50.00 mg/kg/dose IP,72%
same,% T/C MDA-MB-435 SC,MDA-MB-435; 33.50 mg/kg/dose IP,94%
same,% T/C MDA-MB-435 SC,MDA-MB-435; 50.00 mg/kg/dose IP,99%
